{
  "source": "ChEMBL document CHEMBL4017459",
  "about": "“Synthesis and anti-inflammatory evaluation of N-sulfonyl anthranilic acids via Ir(III)-catalyzed C-H amidation of benzoic acids” (2017)",
  "format_in_all_cases": "functional",
  "key": {"RAW264.7 [1]": {"tested_on": "RAW264.7", "assay": "Anti-inflammatory activity in mouse RAW264.7 cells assessed as inhibition of LPS-induced COX-2 expression measured after 24 hrs by Western blot analysis relatively to control"}, "RAW264.7 [2]": {"tested_on": "RAW264.7", "assay": "Anti-inflammatory activity in mouse RAW264.7 cells assessed as inhibition of LPS-induced Il-1beta secretion measured after 24 hrs by Western blot analysis relatively to control"}, "RAW264.7 [3]": {"tested_on": "RAW264.7", "assay": "Potency index, ratio of ibuprofen to test compound for anti-inflammatory activity in mouse RAW264.7 cells assessed as inhibition of LPS-induced IL-beta secretion"}},
  "data": [
    {"compound": "Cc1ccc(S(=O)(=O)Nc2cccc(NS(=O)(=O)c3ccc(C)cc3)c2C(=O)O)cc1", "values": [
      {"measurement": "inhibition (INH)", "setting": "RAW264.7 [1]", "result": 22, "unit": "%"},
      {"measurement": "inhibition (INH)", "setting": "RAW264.7 [2]", "result": -21, "unit": "%"}
    ]},
    {"compound": "Cc1ccc(S(=O)(=O)Nc2ccc(C)cc2C(=O)O)cc1", "values": [
      {"measurement": "inhibition (INH)", "setting": "RAW264.7 [1]", "result": 49, "unit": "%"},
      {"measurement": "inhibition (INH)", "setting": "RAW264.7 [2]", "result": 20, "unit": "%"}
    ]},
    {"compound": "Cc1cccc(NS(=O)(=O)c2ccc3ccccc3c2)c1C(=O)O", "values": [
      {"measurement": "inhibition (INH)", "setting": "RAW264.7 [1]", "result": 33, "unit": "%"},
      {"measurement": "inhibition (INH)", "setting": "RAW264.7 [2]", "result": 6, "unit": "%"}
    ]},
    {"compound": "Cc1cccc(NS(=O)(=O)c2ccc(Br)cc2)c1C(=O)O", "values": [
      {"measurement": "inhibition (INH)", "setting": "RAW264.7 [1]", "result": 36, "unit": "%"},
      {"measurement": "inhibition (INH)", "setting": "RAW264.7 [2]", "result": 98, "unit": "%"}
    ]},
    {"compound": "Cc1ccc(S(=O)(=O)Nc2cccc(F)c2C(=O)O)cc1", "values": [
      {"measurement": "Ratio", "setting": "RAW264.7 [3]", "result": "1.5 - 2.5"},
      {"measurement": "inhibition (INH)", "setting": "RAW264.7 [1]", "result": 3, "unit": "%"},
      {"measurement": "inhibition (INH)", "setting": "RAW264.7 [2]", "result": 82, "unit": "%"}
    ]},
    {"compound": "Cc1cccc(NS(=O)(=O)c2ccc([N+](=O)[O-])cc2)c1C(=O)O", "values": [
      {"measurement": "Ratio", "setting": "RAW264.7 [3]", "result": "1.5 - 2.5"},
      {"measurement": "inhibition (INH)", "setting": "RAW264.7 [1]", "result": 67, "unit": "%"},
      {"measurement": "inhibition (INH)", "setting": "RAW264.7 [2]", "result": 66, "unit": "%"}
    ]},
    {"compound": "Cc1ccc(S(=O)(=O)Nc2cccc([N+](=O)[O-])c2C(=O)O)cc1", "values": [
      {"measurement": "Ratio", "setting": "RAW264.7 [3]", "result": "1.5 - 2.5"},
      {"measurement": "inhibition (INH)", "setting": "RAW264.7 [1]", "result": -1, "unit": "%"},
      {"measurement": "inhibition (INH)", "setting": "RAW264.7 [2]", "result": 81, "unit": "%"}
    ]},
    {"compound": "Cc1cccc(NS(=O)(=O)c2ccccc2)c1C(=O)O", "values": [
      {"measurement": "inhibition (INH)", "setting": "RAW264.7 [1]", "result": 22, "unit": "%"},
      {"measurement": "inhibition (INH)", "setting": "RAW264.7 [2]", "result": 52, "unit": "%"}
    ]},
    {"compound": "COc1ccc(NS(=O)(=O)c2ccc(C)cc2)c(C(=O)O)c1NS(=O)(=O)c1ccc(C)cc1", "values": [
      {"measurement": "inhibition (INH)", "setting": "RAW264.7 [1]", "result": 34, "unit": "%"},
      {"measurement": "inhibition (INH)", "setting": "RAW264.7 [2]", "result": -21, "unit": "%"}
    ]},
    {"compound": "Cc1ccc(S(=O)(=O)Nc2cccc(Br)c2C(=O)O)cc1", "values": [
      {"measurement": "inhibition (INH)", "setting": "RAW264.7 [1]", "result": 18, "unit": "%"},
      {"measurement": "inhibition (INH)", "setting": "RAW264.7 [2]", "result": 42, "unit": "%"}
    ]},
    {"compound": "COc1cccc(NS(=O)(=O)c2ccc(C)cc2)c1C(=O)O", "values": [
      {"measurement": "Ratio", "setting": "RAW264.7 [3]", "result": "1.5 - 2.5"},
      {"measurement": "inhibition (INH)", "setting": "RAW264.7 [1]", "result": 51, "unit": "%"},
      {"measurement": "inhibition (INH)", "setting": "RAW264.7 [2]", "result": 66, "unit": "%"}
    ]},
    {"compound": "Cc1cccc(NS(=O)(=O)c2ccc(C(F)(F)F)cc2)c1C(=O)O", "values": [
      {"measurement": "inhibition (INH)", "setting": "RAW264.7 [1]", "result": 55, "unit": "%"},
      {"measurement": "inhibition (INH)", "setting": "RAW264.7 [2]", "result": 54, "unit": "%"}
    ]},
    {"compound": "Cc1ccc(S(=O)(=O)Nc2ccc3ccccc3c2C(=O)O)cc1", "values": [
      {"measurement": "inhibition (INH)", "setting": "RAW264.7 [1]", "result": 34, "unit": "%"},
      {"measurement": "inhibition (INH)", "setting": "RAW264.7 [2]", "result": 9, "unit": "%"}
    ]},
    {"compound": "Cc1cccc(NS(=O)(=O)c2ccccc2F)c1C(=O)O", "values": [
      {"measurement": "inhibition (INH)", "setting": "RAW264.7 [1]", "result": 42, "unit": "%"},
      {"measurement": "inhibition (INH)", "setting": "RAW264.7 [2]", "result": 35, "unit": "%"}
    ]},
    {"compound": "Cc1ccc(S(=O)(=O)Nc2cc(C)cc(C)c2C(=O)O)cc1", "values": [
      {"measurement": "inhibition (INH)", "setting": "RAW264.7 [1]", "result": 52, "unit": "%"},
      {"measurement": "inhibition (INH)", "setting": "RAW264.7 [2]", "result": 45, "unit": "%"}
    ]},
    {"compound": "COc1ccc(S(=O)(=O)Nc2cccc(C)c2C(=O)O)cc1", "values": [
      {"measurement": "inhibition (INH)", "setting": "RAW264.7 [1]", "result": 51, "unit": "%"},
      {"measurement": "inhibition (INH)", "setting": "RAW264.7 [2]", "result": 88, "unit": "%"}
    ]},
    {"compound": "Cc1ccc(S(=O)(=O)Nc2cccc(Cl)c2C(=O)O)cc1", "values": [
      {"measurement": "inhibition (INH)", "setting": "RAW264.7 [1]", "result": -4, "unit": "%"},
      {"measurement": "inhibition (INH)", "setting": "RAW264.7 [2]", "result": 45, "unit": "%"}
    ]},
    {"compound": "Cc1ccc(S(=O)(=O)Nc2cccc(C(F)(F)F)c2C(=O)O)cc1", "values": [
      {"measurement": "inhibition (INH)", "setting": "RAW264.7 [1]", "result": 69, "unit": "%"},
      {"measurement": "inhibition (INH)", "setting": "RAW264.7 [2]", "result": 21, "unit": "%"}
    ]},
    {"compound": "Cc1ccc(S(=O)(=O)Nc2cccc(C)c2C(=O)O)cc1", "values": [
      {"measurement": "inhibition (INH)", "setting": "RAW264.7 [1]", "result": 72, "unit": "%"},
      {"measurement": "inhibition (INH)", "setting": "RAW264.7 [2]", "result": 37, "unit": "%"}
    ]},
    {"compound": "Cc1ccc(S(=O)(=O)Nc2cc(C)cc(NS(=O)(=O)c3ccc(C)cc3)c2C(=O)O)cc1", "values": [
      {"measurement": "Ratio", "setting": "RAW264.7 [3]", "result": "1.5 - 2.5"},
      {"measurement": "inhibition (INH)", "setting": "RAW264.7 [1]", "result": -8, "unit": "%"},
      {"measurement": "inhibition (INH)", "setting": "RAW264.7 [2]", "result": 66, "unit": "%"}
    ]},
    {"compound": "CC(C)Cc1ccc(C(C)C(=O)O)cc1", "note": "(configuration not stated) [IBUPROFEN]", "values": [
      {"measurement": "inhibition (INH)", "setting": "RAW264.7 [1]", "result": 54, "unit": "%"},
      {"measurement": "inhibition (INH)", "setting": "RAW264.7 [2]", "result": 35, "unit": "%"}
    ]}
  ]
}
